The source of these data is patent publication US20260042762A1 (Kymera Therapeutics, Inc., priority 2018, published 2026).

The target of the first test is T1, MerTK (Homo sapiens, UniProt Q12866).
T1 construct: endogenous in cells; host or cells: Jurkat cells
T1 sequence (Q12866 21-999): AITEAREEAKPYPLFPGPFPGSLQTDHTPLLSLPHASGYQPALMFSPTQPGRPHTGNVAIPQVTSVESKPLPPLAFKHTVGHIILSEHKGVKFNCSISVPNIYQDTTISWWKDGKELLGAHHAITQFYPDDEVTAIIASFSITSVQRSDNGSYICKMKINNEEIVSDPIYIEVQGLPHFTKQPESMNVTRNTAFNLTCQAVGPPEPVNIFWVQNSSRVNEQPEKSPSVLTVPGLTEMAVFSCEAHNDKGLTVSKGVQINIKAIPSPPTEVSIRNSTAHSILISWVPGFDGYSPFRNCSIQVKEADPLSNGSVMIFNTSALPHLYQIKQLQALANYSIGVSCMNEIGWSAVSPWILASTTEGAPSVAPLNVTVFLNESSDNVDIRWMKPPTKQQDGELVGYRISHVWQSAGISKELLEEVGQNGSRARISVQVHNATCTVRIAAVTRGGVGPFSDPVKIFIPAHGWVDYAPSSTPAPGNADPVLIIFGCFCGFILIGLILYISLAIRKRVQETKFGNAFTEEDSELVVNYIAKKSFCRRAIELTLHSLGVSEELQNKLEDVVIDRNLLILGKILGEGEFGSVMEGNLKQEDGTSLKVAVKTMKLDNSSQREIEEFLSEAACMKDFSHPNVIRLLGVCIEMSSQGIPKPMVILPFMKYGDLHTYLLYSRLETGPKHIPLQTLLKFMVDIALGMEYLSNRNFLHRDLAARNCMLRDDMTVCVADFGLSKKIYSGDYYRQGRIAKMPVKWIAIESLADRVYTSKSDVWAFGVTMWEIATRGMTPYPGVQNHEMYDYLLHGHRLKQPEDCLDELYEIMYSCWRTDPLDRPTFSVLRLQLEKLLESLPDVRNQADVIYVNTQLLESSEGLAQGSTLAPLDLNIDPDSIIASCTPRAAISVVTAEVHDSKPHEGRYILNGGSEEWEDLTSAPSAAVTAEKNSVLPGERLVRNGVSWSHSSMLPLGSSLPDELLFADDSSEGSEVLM
Kind of test: MerTk degradation in Jurkat cells (Western blot). The settings on record: 0.001-1 μM, 4 hour-incubation at 37° C., read-out: Jurkat Max % MerTK Degradation. In kind it is cell-based. On the procedure: Compounds were reconstituted in DMSO to make 10 mM stock solutions. […] Cells were seeded into 6-well plates with about 5×10^6 cells per well. 2 μL of diluted compounds were added to cells to the final concentration of 0.001-1 μM. After a 4 hour-incubation at 37° C., cells were collected into 2 mL Eppendorf tubes and centrifuged at 1,000 rpm for 5 min. The cell pellets were washed with DPBS (1×) once and resuspended in 60 μL RIPA lysis buffer with Halt Protease and Phophatase Inhibitor Cocktail. The cells were lysed on ice for 10 min, then centrifuged at 14,000 rpm for 10 min at 4° C. and the supernatants were collected for western blots.
The protein concentration of cell lysates was quantified with Pierce™ BCA Protein Assay Kit. […] BCA working reagents were prepared by mixing BCA reagent A with reagent B in 50: 1 ratio. 200 μL of the BCA working reagents were added to 25 μL of BCA standard or cell lysates in microplate, and mixed thoroughly on a plate shaker for 30 seconds. After incubation at 37° C. for 30 min, the absorbance of samples at 562 nm were measured with EnVision Plate Reader.
Protein lysates were prepared in NuPAGE™ LDS sample buffer and NuPAGE™ sample reducing agent, and incubated at 95° C. for 5 min. […] The proteins were transferred to low fluorescence PVDF membranes using the Trans-Blot Turbo Transfer System. Membranes were then blocked in Odyssey blocking buffer at RT for 1 h followed by primary incubation at 4° C. overnight. The primary antibodies were MerTK rabbit monoclonal antibody and actin mouse monoclonal antibody. Membranes were washed three times with TBST (1×), and then incubated with IR Dye 800 CW Goat anti-rabbit and IR Dye 700 CW Goat anti-mouse secondary antibodies in 1:10,000 dilution at RT for 1 h. The Western blot images were obtained using Odyssey Imaging System.
With `CCCCNc1ncc2c(-c3ccc(CN4CCN(CCCC(=O)NCCCOCCCOCCCc5cccc6c5n(C)c(=O)n6C5CCC(=O)NC5=O)CC4)cc3)cn([C@H]3CC[C@H](O)CC3)c2n1` (stereo partly drawn) [I-8, Trans-4-[4-([4-[2-(butylamino)-7-[4-hydroxycyclohexyl]-7H-pyrrolo[2,3-d]pyrimidin-5-yl]phenyl]methyl)piperazin-1-yl]-N-[3-(3-[3-[1-(2,6-dioxopiperidin-3-yl)-3-methyl-2-oxo-2,3-dihydro-1H-1,3-benzodiazol-4-yl]propoxy]propoxy)propyl]butanamide formic acid], the Dmax is more than 50%.

Staying with this test, now noted: Jurkat, 4 h, 0.001-1 μM, 4 hour-incubation at 37° C., read-out: Jurkat Max % MerTK Degradation.
For the compound `CCCCNc1ncc2c(-c3ccc(S(=O)(=O)N4CCN(CCOCCOCCOCCOCCNc5cccc6c5n(C)c(=O)n6C5CCC(=O)NC5=O)CC4)cc3)cn([C@H]3CC[C@H](O)CC3)c2n1` (relative stereo) [I-35, Trans-3-[4-[15-(4-[4-[2-(butylamino)-7-[-4-hydroxycyclohexyl]-7H-pyrrolo[2,3-d]pyrimidin-5-yl]benzenesulfonyl]piperazin-1-yl)-4,7,10,13-tetraoxa-1-azapentadecan-1-yl]-3-methyl-2-oxo-2,3-dihydro-1H-1,3-benzodiazol-1-yl]piperidine-2,6-dione], the Dmax was more than 50%.

Take `COCC(C)Nc1ncc2c(-c3ccc(CN4CCN(CCCCCNCCN[C@H](C(=O)N5C[C@H](O)C[C@H]5C(=O)NCc5ccc(-c6scnc6C)cc5)C(C)(C)C)CC4)cc3)cn([C@H]3CC[C@H](O)CC3)c2n1` (stereo partly drawn) [I-3, (2S,4R)-4-Hydroxy-1-[(2S)-2-([2-[(5-[4-[(4-[2-[(1-methoxypropan-2-yl)amino]-7-(trans-4-hydroxycyclohexyl)-7H-pyrrolo[2,3-d]pyrimidin-5-yl]phenyl)methyl]piperazin-1-yl]pentyl)amino]ethyl]amino)-3,3-dimethylbutanoyl]-N-[[4-(4-methyl-1,3-thiazol-5-yl)phenyl]methyl]pyrrolidine-2-carboxamide]: the Dmax is less than 20%.

Turning to `COC[C@H](C)Nc1ncc2c(-c3ccc(CN4CCN(CCOCCOCCOCCOCCNc5cccc6c5n(C)c(=O)n6C5CCC(=O)NC5=O)CC4)cc3)cn([C@H]3CC[C@H](O)CC3)c2n1` (stereo partly drawn) [I-4, Trans-3-[4-[15-(4-[[4-(2-[[(2S)-1-methoxypropan-2-yl]amino]-7-[4-hydroxycyclohexyl]-7H-pyrrolo[2,3-d]pyrimidin-5-yl)phenyl]methyl]piperazin-1-yl)-4,7,10,13-tetraoxa-1-azapentadecan-1-yl]-3-methyl-2-oxo-2,3-dihydro-1H-1,3-benzodiazol-1-yl]piperidine-2,6-dione bis(formic acid)], the Dmax is more than 50%.

For `COC[C@@H](C)Nc1ncc2c(-c3ccc(CN4CCN(CCOCCOCCOCCOCCNc5cccc6c5n(C)c(=O)n6C5CCC(=O)NC5=O)CC4)cc3)cn([C@H]3CC[C@H](O)CC3)c2n1` (stereo partly drawn) [I-5, Trans-3-[4-[15-(4-[[4-(2-[[(2R)-1-methoxypropan-2-yl]amino]-7-[4-hydroxycyclohexyl]-7H-pyrrolo[2,3-d]pyrimidin-5-yl)phenyl]methyl]piperazin-1-yl)-4,7,10,13-tetraoxa-1-azapentadecan-1-yl]-3-methyl-2-oxo-2,3-dihydro-1H-1,3-benzodiazol-1-yl]piperidine-2,6-dione bis(formic acid)], the Dmax was less than 20%.

With `COC[C@H](C)Nc1ncc2c(-c3ccc(CN4CCN(CCOCCOCCOCCOCCNc5cccc6c5C(=O)N(C5CCC(=O)NC5=O)C6=O)CC4)cc3)cn([C@H]3CC[C@H](O)CC3)c2n1` (stereo partly drawn) [I-11, Trans-2-(2,6-dioxopiperidin-3-yl)-4-[15-(4-[[4-(2-[[(2S)-1-methoxypropan-2-yl]amino]-7-[4-hydroxycyclohexyl]-7H-pyrrolo[2,3-d]pyrimidin-5-yl)phenyl]methyl]piperazin-1-yl)-4,7,10,13-tetraoxa-1-azapentadecan-1-yl]-2,3-dihydro-1H-isoindole-1,3-dione], the Dmax is more than 50%.

With `CCCCNc1ncc(-c2ccc(CN3CCN(C(=O)COCCOCCOCCOCCNc4cccc5c4C(=O)N(C4CCC(=O)NC4=O)C5=O)CC3)cn2)c(N[C@H]2CC[C@H](O)CC2)n1` (stereo partly drawn) [I-22, 4-[15-[4-([6-[2-(Butylamino)-4-[[trans-4-hydroxycyclohexyl]amino]pyrimidin-5-yl]pyridin-3-yl]methyl)piperazin-1-yl]-15-oxo-4,7,10,13-tetraoxa-1-azapentadecan-1-yl]-2-(2,6-dioxopiperidin-3-yl)-2,3-dihydro-1H-isoindole-1,3-dione], the Dmax was more than 50%.

As for `CCCCNc1ncc2c(-c3ccc(S(=O)(=O)N4CCN(C(=O)COCCOCCOCCOCC(=O)N[C@H](C(=O)N5C[C@H](O)C[C@H]5C(=O)NCc5ccc(-c6scnc6C)cc5)C(C)(C)C)CC4)cc3)nn([C@H]3CC[C@H](O)CC3)c2n1` [I-31, (2S,4R)-1-((S)-2-(tert-butyl)-17-(4-((4-(6-(butylamino)-1-(trans-4-hydroxycyclohexyl)-1H-pyrazolo[3,4-d]pyrimidin-3-yl)phenyl)sulfonyl)piperazin-1-yl)-4,17-dioxo-6,9,12,15-tetraoxa-3-azaheptadecanoyl)-4-hydroxy-N-(4-(4-methylthiazol-5-yl)benzyl)pyrrolidine-2-carboxamide], the Dmax is 20 to 50%.

For the compound `CCCCNc1ncc2c(-c3ccc(S(=O)(=O)N4CCN(C(=O)COCCOCCOCCOCCNc5cccc6c5C(=O)N(C5CCC(=O)NC5=O)C6=O)CC4)cc3)nn([C@H]3CC[C@H](O)CC3)c2n1` (stereo partly drawn) [I-32, 4-((14-(4-((4-(6-(butylamino)-1-(trans-4-hydroxycyclohexyl)-1H-pyrazolo[3,4-d]pyrimidin-3-yl)phenyl)sulfonyl)piperazin-1-yl)-14-oxo-3,6,9,12-tetraoxatetradecyl)amino)-2-(2,6-dioxopiperidin-3-yl)isoindoline-1,3-dione], the Dmax was more than 50%.

As to `CCCCNc1ncc2c(-c3ccc(S(=O)(=O)N4CCN(CCOCCOCCOCCOCC(=O)N[C@H](C(=O)N5C[C@H](O)C[C@H]5C(=O)NCc5ccc(-c6scnc6C)cc5)C(C)(C)C)CC4)cc3)nn([C@H]3CC[C@H](O)CC3)c2n1` [I-33, (2S,4R)-1-((S)-2-(tert-butyl)-17-(4-((4-(6-(butylamino)-1-(trans-4-hydroxycyclohexyl)-1H-pyrazolo[3,4-d]pyrimidin-3-yl)phenyl)sulfonyl)piperazin-1-yl)-4-oxo-6,9,12,15-tetraoxa-3-azaheptadecanoyl)-4-hydroxy-N-(4-(4-methylthiazol-5-yl)benzyl)pyrrolidine-2-carboxamide], the Dmax was more than 50%.

Regarding `CCCCNc1ncc2c(-c3ccc(S(=O)(=O)N4CCN(CCOCCOCCOCCOCCNc5cccc6c5C(=O)N(C5CCC(=O)NC5=O)C6=O)CC4)cc3)nn([C@H]3CC[C@H](O)CC3)c2n1` (stereo partly drawn) [I-34, 4-((14-(4-((4-(6-(butylamino)-1-(trans-4-hydroxycyclohexyl)-1H-pyrazolo[3,4-d]pyrimidin-3-yl)phenyl)sulfonyl)piperazin-1-yl)-3,6,9,12-tetraoxatetradecyl)amino)-2-(2,6-dioxopiperidin-3-yl)isoindoline-1,3-dione], the Dmax is more than 50%.

Consider `CCCCNc1ncc2c(-c3ccc(CN4CCN(CCOCCOCCOCCOCCNc5cccc6c5n(C)c(=O)n6C5CCC(=O)NC5=O)CC4)cc3)cn([C@H]3CC[C@H](O)CC3)c2n1` (stereo partly drawn) [I-36, trans-3-(4-[15-[4-([4-[2-(butylamino)-7-[4-hydroxycyclohexyl]-7H-pyrrolo[2,3-d]pyrimidin-5-yl]phenyl]methyl)piperazin-1-yl]-4,7,10,13-tetraoxa-1-azapentadecan-1-yl]-3-methyl-2-oxo-2,3-dihydro-1H-1,3-benzodiazol-1-yl)piperidine-2,6-dione], for which the Dmax is more than 50%.
